From ChEMBL document CHEMBL1212811, “Chemical phylogenetics of histone deacetylases” (Nat Chem Biol, 2010)
Structures can show the parent of a compound that is named as a salt. Activity calls are given as the source filed them. The rule behind the calls is not given here. Peptide text beside a SMILES is read from it. * marks the point of attachment. AMC = Cc1cc(=O)oc2cc(N*)ccc12; Tfa = O=C(C(F)(F)F)*

What was measured:
[1] = target: T1, Protein deacetylase HDAC6 (Homo sapiens) (UniProt Q9UBN7); assay: Inhibition of HDAC6 in human Jurkat cells assessed as hyperacetylation of alpha-tubulin after 24 hrs by immunoblot method; format: cell-based
T1 sequence (whole entry): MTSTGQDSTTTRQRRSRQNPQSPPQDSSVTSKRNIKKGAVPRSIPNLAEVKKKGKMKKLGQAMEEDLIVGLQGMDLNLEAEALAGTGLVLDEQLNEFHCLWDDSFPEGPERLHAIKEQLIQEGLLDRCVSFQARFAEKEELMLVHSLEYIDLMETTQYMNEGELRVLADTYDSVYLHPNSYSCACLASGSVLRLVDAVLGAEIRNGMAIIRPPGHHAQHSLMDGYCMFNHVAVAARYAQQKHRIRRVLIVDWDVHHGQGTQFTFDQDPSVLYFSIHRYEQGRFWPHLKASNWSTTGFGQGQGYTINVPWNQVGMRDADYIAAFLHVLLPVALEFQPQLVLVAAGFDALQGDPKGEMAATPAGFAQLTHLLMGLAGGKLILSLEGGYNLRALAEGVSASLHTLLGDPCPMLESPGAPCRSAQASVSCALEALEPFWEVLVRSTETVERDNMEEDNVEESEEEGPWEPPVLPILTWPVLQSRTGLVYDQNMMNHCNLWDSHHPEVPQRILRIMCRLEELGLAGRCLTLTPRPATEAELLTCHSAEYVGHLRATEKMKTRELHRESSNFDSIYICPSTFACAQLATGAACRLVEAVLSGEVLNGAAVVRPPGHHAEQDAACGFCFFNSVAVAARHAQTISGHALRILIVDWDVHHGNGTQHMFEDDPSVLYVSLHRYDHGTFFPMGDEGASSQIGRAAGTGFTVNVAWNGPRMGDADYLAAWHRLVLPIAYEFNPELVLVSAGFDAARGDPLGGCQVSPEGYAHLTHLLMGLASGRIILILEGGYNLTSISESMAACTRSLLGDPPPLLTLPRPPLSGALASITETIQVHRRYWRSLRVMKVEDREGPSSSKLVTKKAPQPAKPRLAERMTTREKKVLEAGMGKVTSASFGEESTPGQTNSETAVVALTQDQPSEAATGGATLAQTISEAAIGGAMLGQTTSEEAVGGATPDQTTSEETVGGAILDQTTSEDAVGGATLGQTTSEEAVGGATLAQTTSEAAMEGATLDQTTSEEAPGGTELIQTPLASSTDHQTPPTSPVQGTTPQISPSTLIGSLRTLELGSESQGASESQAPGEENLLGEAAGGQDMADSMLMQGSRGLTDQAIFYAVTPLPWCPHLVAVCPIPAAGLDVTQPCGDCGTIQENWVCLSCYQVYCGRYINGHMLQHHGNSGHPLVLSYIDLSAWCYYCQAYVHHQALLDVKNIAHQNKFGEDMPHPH

[2] = target: T2, Histone deacetylase 8 (Homo sapiens) (UniProt Q9BY41); assay: Activity of HDAC8 at 10 uM
T2 sequence (whole entry): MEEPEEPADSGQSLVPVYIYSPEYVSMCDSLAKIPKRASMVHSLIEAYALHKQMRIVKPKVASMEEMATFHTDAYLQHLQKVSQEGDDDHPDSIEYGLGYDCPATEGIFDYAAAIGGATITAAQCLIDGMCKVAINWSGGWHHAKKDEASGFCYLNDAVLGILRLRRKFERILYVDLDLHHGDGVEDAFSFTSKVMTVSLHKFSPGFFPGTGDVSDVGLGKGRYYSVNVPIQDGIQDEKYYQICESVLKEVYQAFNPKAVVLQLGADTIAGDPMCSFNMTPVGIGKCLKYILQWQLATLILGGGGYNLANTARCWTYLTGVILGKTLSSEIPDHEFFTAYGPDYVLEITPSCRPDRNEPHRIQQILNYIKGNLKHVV

[3] = target: Histone deacetylase 5 (Homo sapiens) (UniProt Q9UQL6); assay: Activity of HDAC5 at 10 uM
[4] = target: Histone deacetylase 4 (Homo sapiens) (UniProt P56524); assay: Activity of HDAC4 at 10 uM
[5] = target: Histone deacetylase 9 (Homo sapiens) (UniProt Q9UKV0); assay: Activity of HDAC9 at 10 uM
[6] = target: T3, Histone deacetylase 7 (Homo sapiens) (UniProt Q8WUI4); assay: Activity of HDAC7 at 10 uM
T3 sequence (whole entry): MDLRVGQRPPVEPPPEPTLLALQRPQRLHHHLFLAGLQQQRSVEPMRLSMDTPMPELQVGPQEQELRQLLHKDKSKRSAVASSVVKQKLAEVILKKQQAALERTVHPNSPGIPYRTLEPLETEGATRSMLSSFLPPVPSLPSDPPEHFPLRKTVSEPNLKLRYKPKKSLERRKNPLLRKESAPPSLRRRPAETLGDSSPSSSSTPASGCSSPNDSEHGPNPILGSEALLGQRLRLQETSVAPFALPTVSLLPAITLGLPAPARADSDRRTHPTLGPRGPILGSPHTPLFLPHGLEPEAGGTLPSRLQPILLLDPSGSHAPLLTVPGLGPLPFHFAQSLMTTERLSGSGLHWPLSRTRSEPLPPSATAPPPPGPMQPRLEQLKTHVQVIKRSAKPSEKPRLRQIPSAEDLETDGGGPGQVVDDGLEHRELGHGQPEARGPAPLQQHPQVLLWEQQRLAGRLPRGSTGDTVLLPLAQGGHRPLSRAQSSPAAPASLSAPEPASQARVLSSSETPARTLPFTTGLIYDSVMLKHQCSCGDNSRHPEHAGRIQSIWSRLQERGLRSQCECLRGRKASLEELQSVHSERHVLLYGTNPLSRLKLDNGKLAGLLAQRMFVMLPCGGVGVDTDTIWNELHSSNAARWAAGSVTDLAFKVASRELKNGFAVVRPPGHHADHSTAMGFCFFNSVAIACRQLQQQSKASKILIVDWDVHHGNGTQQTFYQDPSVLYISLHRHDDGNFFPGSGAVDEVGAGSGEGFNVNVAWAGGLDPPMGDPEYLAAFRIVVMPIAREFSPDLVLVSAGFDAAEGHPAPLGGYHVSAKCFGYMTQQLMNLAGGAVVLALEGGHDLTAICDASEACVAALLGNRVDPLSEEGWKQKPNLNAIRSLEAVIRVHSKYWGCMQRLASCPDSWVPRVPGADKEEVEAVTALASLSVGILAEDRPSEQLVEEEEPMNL

Chain of Histone deacetylase 5 (Homo sapiens) (Q9UQL6 whole entry): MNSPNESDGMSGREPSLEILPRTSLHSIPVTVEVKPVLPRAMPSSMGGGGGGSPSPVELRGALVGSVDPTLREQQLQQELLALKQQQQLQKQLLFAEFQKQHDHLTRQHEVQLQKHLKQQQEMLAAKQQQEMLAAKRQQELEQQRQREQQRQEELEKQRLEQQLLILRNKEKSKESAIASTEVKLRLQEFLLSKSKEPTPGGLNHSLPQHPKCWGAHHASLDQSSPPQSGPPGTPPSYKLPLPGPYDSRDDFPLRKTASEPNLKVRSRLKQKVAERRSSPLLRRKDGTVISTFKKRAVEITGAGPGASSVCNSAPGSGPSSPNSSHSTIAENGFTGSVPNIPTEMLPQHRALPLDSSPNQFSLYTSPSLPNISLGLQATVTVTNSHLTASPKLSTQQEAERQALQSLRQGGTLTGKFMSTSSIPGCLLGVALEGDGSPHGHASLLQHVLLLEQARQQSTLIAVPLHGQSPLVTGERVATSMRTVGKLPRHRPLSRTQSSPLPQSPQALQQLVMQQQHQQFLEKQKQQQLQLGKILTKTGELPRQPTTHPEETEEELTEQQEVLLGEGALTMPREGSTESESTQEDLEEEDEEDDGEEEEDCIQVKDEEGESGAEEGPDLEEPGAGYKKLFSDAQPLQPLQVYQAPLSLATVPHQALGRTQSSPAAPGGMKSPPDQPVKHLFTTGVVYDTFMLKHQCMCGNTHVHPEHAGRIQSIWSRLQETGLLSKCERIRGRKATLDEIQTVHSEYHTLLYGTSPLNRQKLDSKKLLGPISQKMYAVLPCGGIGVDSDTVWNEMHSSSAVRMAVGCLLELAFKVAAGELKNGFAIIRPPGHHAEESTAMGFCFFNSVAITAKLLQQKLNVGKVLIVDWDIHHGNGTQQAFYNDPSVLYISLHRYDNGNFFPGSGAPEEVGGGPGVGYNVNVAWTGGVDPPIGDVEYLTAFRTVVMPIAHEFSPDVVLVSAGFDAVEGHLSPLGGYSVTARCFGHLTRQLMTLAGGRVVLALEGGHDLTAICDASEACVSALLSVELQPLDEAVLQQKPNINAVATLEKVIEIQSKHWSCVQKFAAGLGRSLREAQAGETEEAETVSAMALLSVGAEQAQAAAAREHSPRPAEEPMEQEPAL
Chain of Histone deacetylase 9 (Homo sapiens) (Q9UKV0 whole entry): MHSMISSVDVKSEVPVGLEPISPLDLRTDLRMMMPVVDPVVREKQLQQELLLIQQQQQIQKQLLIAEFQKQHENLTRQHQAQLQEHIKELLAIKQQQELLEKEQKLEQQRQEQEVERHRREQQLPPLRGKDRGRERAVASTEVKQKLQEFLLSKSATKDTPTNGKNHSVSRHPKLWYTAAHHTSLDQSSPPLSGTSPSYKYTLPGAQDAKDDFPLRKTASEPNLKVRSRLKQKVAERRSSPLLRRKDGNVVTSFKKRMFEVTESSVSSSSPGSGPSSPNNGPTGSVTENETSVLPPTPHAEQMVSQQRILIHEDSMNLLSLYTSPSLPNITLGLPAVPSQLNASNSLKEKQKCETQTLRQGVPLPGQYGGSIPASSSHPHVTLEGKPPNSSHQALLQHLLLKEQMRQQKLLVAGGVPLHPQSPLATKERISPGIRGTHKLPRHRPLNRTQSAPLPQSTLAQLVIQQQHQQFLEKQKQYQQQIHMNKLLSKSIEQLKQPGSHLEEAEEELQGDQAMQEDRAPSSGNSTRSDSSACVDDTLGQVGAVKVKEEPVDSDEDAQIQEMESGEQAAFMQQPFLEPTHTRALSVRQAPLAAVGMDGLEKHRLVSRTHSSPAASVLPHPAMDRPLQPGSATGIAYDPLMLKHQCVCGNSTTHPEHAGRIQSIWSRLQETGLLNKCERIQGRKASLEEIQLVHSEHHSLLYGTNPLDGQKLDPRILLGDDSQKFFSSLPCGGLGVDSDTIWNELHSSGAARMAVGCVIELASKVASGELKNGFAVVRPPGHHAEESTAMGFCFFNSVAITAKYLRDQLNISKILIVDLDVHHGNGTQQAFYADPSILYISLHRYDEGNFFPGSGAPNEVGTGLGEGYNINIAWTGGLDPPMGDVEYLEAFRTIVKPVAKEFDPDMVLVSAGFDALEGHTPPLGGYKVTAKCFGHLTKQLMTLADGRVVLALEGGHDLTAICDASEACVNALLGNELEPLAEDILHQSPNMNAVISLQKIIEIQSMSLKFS
Chain of Histone deacetylase 4 (Homo sapiens) (P56524 whole entry): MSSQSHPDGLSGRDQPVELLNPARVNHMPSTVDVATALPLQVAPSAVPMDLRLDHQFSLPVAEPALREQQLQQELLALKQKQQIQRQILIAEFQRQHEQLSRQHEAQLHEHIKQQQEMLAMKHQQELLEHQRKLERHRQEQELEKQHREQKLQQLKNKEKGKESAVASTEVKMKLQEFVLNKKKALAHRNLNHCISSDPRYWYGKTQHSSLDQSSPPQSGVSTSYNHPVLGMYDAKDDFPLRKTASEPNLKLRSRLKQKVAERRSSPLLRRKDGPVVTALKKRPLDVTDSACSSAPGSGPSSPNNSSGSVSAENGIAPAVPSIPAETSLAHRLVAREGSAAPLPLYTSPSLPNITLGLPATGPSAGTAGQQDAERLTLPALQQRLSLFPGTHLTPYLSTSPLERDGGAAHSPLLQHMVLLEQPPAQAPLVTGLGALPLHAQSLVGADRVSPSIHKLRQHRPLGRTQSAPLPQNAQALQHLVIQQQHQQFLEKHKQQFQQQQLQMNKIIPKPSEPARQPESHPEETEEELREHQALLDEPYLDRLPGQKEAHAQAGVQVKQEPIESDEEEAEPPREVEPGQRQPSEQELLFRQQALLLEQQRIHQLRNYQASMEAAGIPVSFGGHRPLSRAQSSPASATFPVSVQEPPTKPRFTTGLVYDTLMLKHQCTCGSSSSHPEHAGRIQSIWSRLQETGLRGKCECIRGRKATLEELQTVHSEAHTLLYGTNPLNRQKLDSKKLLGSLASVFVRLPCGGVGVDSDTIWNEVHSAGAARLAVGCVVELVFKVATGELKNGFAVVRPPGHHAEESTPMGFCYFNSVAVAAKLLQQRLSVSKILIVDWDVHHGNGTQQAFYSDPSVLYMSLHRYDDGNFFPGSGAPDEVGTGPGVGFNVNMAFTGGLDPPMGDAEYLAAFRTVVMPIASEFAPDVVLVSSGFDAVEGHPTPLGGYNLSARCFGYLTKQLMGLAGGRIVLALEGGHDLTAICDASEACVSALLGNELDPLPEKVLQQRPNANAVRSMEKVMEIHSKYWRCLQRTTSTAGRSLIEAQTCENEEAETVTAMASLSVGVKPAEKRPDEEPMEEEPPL

Activity [2]	Activity [3]	Activity [4]	Activity [5]	Activity [6]	Structure (SMILES)	inhibition [1]
					O=C(/C=C/c1ccc(C(=O)N/N=C/c2ccc(O)c(O)c2O)cc1)NO	Dose-dependent effect
Active	Active	Active	Active	Active	CC(=O)N[C@@H](CC(C)C)C(=O)NCC(=O)N[C@@H](CCCCNC(=O)C(F)(F)F)C(=O)Nc1ccc2c(C)cc(=O)oc2c1 (Ac-Leu-Gly-Lys(Tfa)-{AMC})	
